Measured values published in patent US5696276A, “Process for preparing 5,8-dihydroxynaphthoquinone derivatives, novel 5,8-dihydroxynaphthoquinone derivatives and their use as anticancer agent” (Kuhnil Pharmaceutical Co., Ltd., priority 1993, dated 1997).
Converted amounts (≈) assume the structure as drawn.

How the values were obtained:
S-180 sarcoma cells = assay: Animal experiment using Sarcoma S-180 cells (survival of mouse); assay type: in vivo, male ICR mouse; conditions: ip, S-180 ICR mouse, intraperitoneal, 7 to 8 injections; for responders at 10 µmol/kg / responders at 5 µmol/kg / responders at 15 µmol/kg: 1200 h, read-out: Number of mouse survived for 50 days (converted); for responders at 10 µmol/kg / response vs control in vivo at 10 µmol/kg: daily dose 10 μmole (mg/kg/day given per compound); for response vs control in vivo at 10 µmol/kg / response vs control in vivo at 5 µmol/kg / response vs control in vivo at 15 µmol/kg: read-out: T/C; for responders at 5 µmol/kg / response vs control in vivo at 5 µmol/kg: daily dose 5 μmole (mg/kg/day given per compound); for responders at 15 µmol/kg / response vs control in vivo at 15 µmol/kg: daily dose 15 μmole (mg/kg/day given per compound)
Protocol: In this experiment, healthy male ICR mouse weighing 20 to 25 g were used as test animal and were fed with water and feed without any restriction in the chamber controlled at the temperature of 23° to 24° C. As the feed, the antibiotic-free feed for mouse was used.
S-180 cells which were incubated for 7 days within abdominal cavity of ICR mouse were separated together with ascites. To the separated cells was added sterilized cold physiological saline and the mixture was centrifuged with 400×g for 2 minutes to separate the cell precipitate. The separated cell precipitate was suspended again in sterilized cold physiological saline and then centrifuged to remove the supernatant. Only S-180 cells were taken, excluding any red bllod cells incorporated therein, washed three times with the same method as above, and then suspended to obtain the cell suspension in concentration of 10^7 cells/ml by counting the number of cells with a haemacytometer. Each 0.1 ml of this cell suspension was transplanted in an abdominal cavity.
After 24 hours from the transplantation, mouse were divided so that each group contains 8 to 9 mouse. The test sample was dissolved in a predetermined amount of dimethylsulfoxide to prepare the stock solution which was stored at 4° C. 30 μl of the stock solution was taken and then mixed with 1.5 ml of physiological saline. 0.1 ml of this mixture was intraperitoneally injected to the test animal. To the control group, 2% dimethylsulfoxide-physiological saline solution was injected. Meanwhile, doxorubicin which is used as the comparative drug was dissolved in 2% dimethylsulfoxide-physiological saline solution and then injected in an amount of 0.5 mg(titer)/kg. The schedule for injection comprises a total of 7 to 8 injections in the manner that after the transplantation of cancer cells 0.1 ml of the test sample per a day is administered for 2 to 4 days followed by the rest for one day. The survival rate was calculated on the basis of the date on which all of one control group is died (approximately 18 to 20 days). The survival rate (T/C, %) was calculated by the following equation as proposed in NIC's protocol: [formula]

A549 cancer cells = assay: Cytotoxic activity against A549 cancer cells (sulforhodamin B method); assay type: cell-based; conditions: Homo sapiens; A549 cells, SRB method, 48 hours; read-out: ED50, cytotoxic activity against A549
Protocol: The cytotoxic activity against A549 cancer cells was determined using a method for measuring sulforhodamin B (SRB), which was developed in the year 1989 by NIC for measuring anticancer activity of the drug in vitro. For the experiment, cells under subculturing were separated from the attached surface with trypsin-CDTA solution and then dispensed into a 24-well flat-bottom microplate (Falcon) so that the number of cells per well is 8×10^4 (A549). The microplate was incubated in a CO2 incubator for 24 hours to attach the dispensed cells to bottom. The medium was removed with aspirator. Then, 100 μl of the solution of the test compounds diluted in a log-dose of 6 kinds of concentration was added to each well containing cells, in a multiple of 3. The microplate was incubated for further 48 hours. In addition, the diluted solution of the test compounds above was filtered through a 0.22 μm filter, before addition to the cells, to keep the experiment under sterilized condition. The cells were incubated with the test compounds for 48 hours and then the medium was removed from each well. 100 μl of 10% trichloroacetic acid (TCA) was added to each well and then the plate was allowed to stand at 4° C. for one hour to fix the cells to the bottom of plate. After fixing the cells, the plate was washed 5 to 6 times with water to completely remove any remaining TCA solution and then dried at room temperature until water is no longer present. To the completely dried plate was added the dying solution of 0.4% SRB dissolved in 1% acetic acid in an amount of 250 μl per well to stain the cells for 30 minutes and then the plate was washed again 5 to 6 times with 1% acetic acid solution to remove the remaining SRB which is not bound to the cells. The stained cell plate was dried again at room temperature. Then, the dying solution was carefully dissolved in a certain amount of 10 mM Tris so that the O.D. value in the control group at 520 nm is 0.8-1.0 Å (optical density), and the optical density at 520nm was determined. The ED50 value was obtained from the determined optical density. To calculate the activity of the drug against cancer cells, the number of cells (Tz) at the beginning of the addition of drug, the number of cells (C) after incubation with the medium in the absence of drug for 48 hours and the number of cells (T) after incubation in the presence of drugs at each concentration for 48 hours were determined.
The anticancer activity of the test compounds was determined form the following equations. Specifically, in the […] the equation (T-Tz)/(C-Tz)×100 was used and in the case of Tz<T the equation (T-Tz)/Tz×100 was used. Then the IC50 value wich is the concentration of drug which inhibits the growth of cancer cells by 50% was calcualted from the above calculated values using a data regressive function of LOTUS programme and the cytotoxic activities of the test compounds were compared with each other.

L1210 cells = assay: Cytotoxic activity against L1210 cells; assay type: cell-based; conditions: Mus musculus; L1210 cells, 48 hours, 37° C.; read-out: ED50, cytotoxic activity against L1210
Protocol: To obtain L1210 cells in a logarithmic phase for cytotoxic activity test, in a 250 ml Erlenmeyer flask with a screw cap including Fisher medium warmed to 36° to 37° C. L1210 cells were adjusted to a concentration of 2-3×10^5 cells/ml and then cultured, before 24 hours from the beginning of experiment. Then, the culture solution thus obtained was suspended to prepare a L1210 cell suspension having a concentration of about 0.8-1.0×10^6 cells/ml. Test sample was dissoved in ethanol or dimethylsulfoxide in a certain concentration just before the experiment. 0.1 ml of the sample solution was diluted 10 times with 0.9 ml of a fresh medium. To each screw-capped test tube were added 100, 50, 25 μl, respectively, of the sample dilutions and then added 5 ml of the cell suspension (5×10^4 cells/ml) prepared above to use as the test group. To the test tubes for the control group (2√n: n=number of the samples), only 5 ml of the cell suspension was added. All test tubes were cultured for 48 hours in a CO2 incubator at 37° C. and then the number of cells was counted using a haemacytometer.
(§1) The ED50 value is defined as a concentration (μg/ml) of the sample which inhibits the growth of cancer cells by 50% of the control group and determined according to a method described in NIC's mannual (NIC=National Cancer Institue, U.S.A.). The growth rate Y(%) of cells in the presence of the test sample in each concentration was calculated according to the followign equation: […]
(§2) In the above equation, T means the average cell number per ml in the test group after incubation for 48 hours in the presence of the test samples in each concentration, C means the average cell number per ml in the control group after incubation for 48 hours, and Co means the average cell number per ml in the control group at the beginning of incubation. The Y(%) value at each concentration and log10 value of each concentration were obtained and the regression curve was constructed according to the following equation from those obtained values. In this case, when all the Y(%) value obtained at each concentration is greater than 55% or lower than 45%, the experiment was repeatedly conducted.
(§3) To construct the regression curve Y=A+BX the values A and B were obtained using the following equation. [formula]
(§4) In the above, the value N is the number of selected points which is greater than 2 and lower than, or identical with, the number of cencentration of the test sample, Xi is log(concentration) i, and Yi is the growth ratio at (concentration)i. The value of ED50 was obtained for those obtained slope and intercept.

K-562 cells = assay: Cytotoxic activity against K-562 cells; assay type: cell-based; conditions: Homo sapiens; K562 cells, 48 hours, 37° C.; read-out: ED50, cytotoxic activity against K562
Protocol: As in the test for the cytotoxic activity against L1210 cells, the test samples were dissoved in ethanol or dimethylsulfoxide in a certain concentration. 0.1 ml of the sample solution was mixed with 0.9 ml of a fresh medium to prepare the dilutions. To each two test tubes having a screw cap were added 100, 50, 25 μl, respectively, of the sample dilutions by means of a micropipet. To each test tube for the test group and the control group (2√n: n=number of the samples) was added 5 ml of the dilutions of HL-60 cells and K-562 cells which were cultured and activated before 24 hours from the beginning of experiment and then diluted in a concentration of 1×10^5 cells/mi. All test tubes were cultured for 48 hours in a CO2 incubator at 37° C. and then the number of cells was counted using a haemacytometer.
as §1, §2, §3, §4

SMILES	responders at 10 µmol/kg (S-180 sarcoma cells) [%]	response vs control in vivo at 10 µmol/kg (S-180 sarcoma cells) [%]	IC50 (A549 cancer cells) [µg/mL]	IC50 (L1210 cells) [µg/mL]	IC50 (K-562 cells) [µg/mL]	responders at 5 µmol/kg (S-180 sarcoma cells) [%]	response vs control in vivo at 5 µmol/kg (S-180 sarcoma cells) [%]	responders at 15 µmol/kg (S-180 sarcoma cells) [%]	response vs control in vivo at 15 µmol/kg (S-180 sarcoma cells) [%]
CCCCCC(=O)OC(CCC(C)C)C1=CC(=O)c2c(O)ccc(O)c2C1=O (centres unmarked)	0	151	0.4 (≈ 1.03 µM)	0.3 (≈ 0.772 µM)	0.05 (≈ 0.129 µM)	–	–	–	–
CC(=O)OC(CCC(C)C)C1=CC(=O)c2c(O)ccc(O)c2C1=O (centres unmarked) [2-(1-acetoxy-4-methylpentyl)-5,8-dihydroxy-1,4-naphthoquinone]	–	–	1.5 (≈ 4.51 µM)	0.05 (≈ 0.15 µM)	0.07 (≈ 0.211 µM)	14.3	188	–	–
CCCCCCCCCC(OC(C)=O)C1=CC(=O)c2c(O)ccc(O)c2C1=O (centres unmarked) [2-(1-acetoxydecyl)-5,8-dihydroxy-1,4-naphthoquinone]	14.3	197	0.3 (≈ 0.772 µM)	0.4 (≈ 1.03 µM)	0.1 (≈ 0.257 µM)	–	–	–	–
CCCCCC(OC(C)=O)C1=CC(=O)c2c(O)ccc(O)c2C1=O (centres unmarked) [2-(1-acetoxyhexyl)-5,8-dihydroxy-1,4-naphthoquinone]	–	–	0.7 (≈ 2.11 µM)	0.08 (≈ 0.241 µM)	0.01 (≈ 0.0301 µM)	25	150	–	–
CCCCCCCCCCCCC(OC(C)=O)C1=CC(=O)c2c(O)ccc(O)c2C1=O (centres unmarked) [2-(1-acetoxytridecyl)-5,8-dihydroxy-1,4-naphthoquinone]	14.3	131	15.8 (≈ 36.7 µM)	0.4 (≈ 0.929 µM)	4.2 (≈ 9.76 µM)	–	–	–	–
CCOC(CCC(C)C)C1=CC(=O)c2c(O)ccc(O)c2C1=O (centres unmarked) [2-(1-ethoxy-4-methylpentyl)-5,8-dihydroxy-1,4-naphthoquinone]	0	105	1.7 (≈ 5.34 µM)	0.04 (≈ 0.126 µM)	0.08 (≈ 0.251 µM)	–	–	–	–
CCCCCC(=O)OC(CCCCC)C1=CC(=O)c2c(O)ccc(O)c2C1=O (centres unmarked) [2-(1-hexanoyloxyhexyl)-5,8-dihydroxy-1,4-naphthoquinone]	0	151	0.3 (≈ 0.772 µM)	0.1 (≈ 0.257 µM)	0.2 (≈ 0.515 µM)	–	–	–	–
CC(C)CCC(O)C1=CC(=O)c2c(O)ccc(O)c2C1=O (centres unmarked) [2-(1-hydroxy-4-methylpentyl)-5,8-dihydroxy-1,4-naphthoquinone, reference compound]	–	–	0.9 (≈ 3.1 µM)	0.05 (≈ 0.172 µM)	0.01 (≈ 0.0344 µM)	0	120	–	–
COc1ccc(OC)c2c1C(=O)C=C(C(O)CCC(C)C)C2=O (centres unmarked) [2-(1-hydroxy-4-methylpentyl)-5,8-dimethoxy-1,4-naphthoquinone]	0	120	2.2 (≈ 6.91 µM)	0.02 (≈ 0.0628 µM)	0.9 (≈ 2.83 µM)	–	–	–	–
CCCCCCCCCCCCC(O)C1=CC(=O)c2c(O)ccc(O)c2C1=O (centres unmarked) [2-(1-hydroxytridecyl)-5,8-dihydroxy-1,4-naphthoquinone]	0	113	4.4 (≈ 11.3 µM)	0.3 (≈ 0.772 µM)	0.4 (≈ 1.03 µM)	–	–	–	–
COC(CCC(C)C)C1=CC(=O)c2c(O)ccc(O)c2C1=O (centres unmarked) [2-(1-methoxy-4-methylpentyl)-5,8-dihydroxy-1,4-naphthoquinone]	0	126	1.5 (≈ 4.93 µM)	0.05 (≈ 0.164 µM)	0.07 (≈ 0.23 µM)	–	–	–	–
CCCCCCCC(=O)OC(CCC(C)C)C1=CC(=O)c2c(O)ccc(O)c2C1=O (centres unmarked) [2-(1-octanoyloxy-4-methylpentyl)-5,8-dihydroxy-1,4-naphthoquinone]	–	–	1.7 (≈ 4.08 µM)	0.5 (≈ 1.2 µM)	0.6 (≈ 1.44 µM)	–	–	0	131
CCCCCCCC(=O)OC(CCCCC)C1=CC(=O)c2c(O)ccc(O)c2C1=O (centres unmarked) [2-(1-octanoyloxyhexyl)-5,8-dihydroxy-1,4-naphthoquinone]	–	–	2.1 (≈ 5.04 µM)	0.2 (≈ 0.48 µM)	0.3 (≈ 0.72 µM)	–	–	0	95
